We go through 22 compounds from patent US20260200919A1, “SUBSTITUTED AMINOPYRIDINE COMPOUNDS AND METHODS OF TREATING DISEASE USING SAME” (Atavistik Bio, Inc., priority 2023, published 2026).

A value given as a limit tells only on which side of the number the result lay.

The target of assay [1] is T1, human recombinant kinase full-length AKT1 E17K (Homo sapiens, UniProt P31749, E17K).
T1 construct: Purified human recombinant kinase full-length AKT1 E17K was expressed in insect cells; made in house; host or cells: insect cells
Nature of the assay: AKT1 E17K kinase assay (TR-FRET, Lance). It is filed as biochemical. The conditions noted are these: 0.6 nM AKT1 E17K, 50 nM Ulight-CREBtide, either 50 μM ATP or 2 mM ATP (not specified which), 60 min at RT. The method, then:
AKT1 E17K kinase assay: Inhibitory effects of compounds on AKT1 E17K were undertaken in a 10-pt dose response kinase activity assay measuring phospho-peptide product formation based on TR-FRET signal as described in the following paragraph.
(§1) Purified human recombinant kinase full-length AKT1 E17K was expressed in insect cells and activated in vitro by PDPK1. Ulight™-CREBtide (PerkinElmer, catalog number TRF0107) was used as the peptide substrate. The reaction buffer consisted of 50 mM HEPES pH 7.5, 10 mM MgCl2, 0.01% Triton X-100, 0.01% BSA, 2 mM DTT, 0.6 nM AKT1 E17K, 50 nM. Ulight™ CREBtide and either 50 μM ATP or 2 mM ATP. The compound solution was prepared as 10 mM DMSO stock. […] Final DMSO concentration in the assay was 1%. […] The reaction was stopped after 60 min of incubation at RT by the addition of 10 μL of Detection Mix (PerkinElmer, #CR97-100) consisting of Europium-anti-phospho-CREB (Ser133) (Perkin Elmer, catalog numberTRF0200). Incubation with the detection mix for a further 60 min allowed binding of antibody to the phospho-Ulight™ CREBtide. The fluorescence emissions at 620 nm and 665 nm after excitation at […] was measured using Envision reader. The ratio of the emissions at 665 nm and at 620 nm provided the measure for the amount of phosphorylated CREBtide product of AKT1 E17K kinase activity.
For orientation: TR-FRET usually uses a lanthanide donor and a delayed reading to cut background.

Assay [2] addresses T2, human recombinant kinase full-length wildtype AKT1 (Homo sapiens, UniProt P31749).
T2 construct: Purified human recombinant kinase full-length wildtype AKT1 was expressed in insect cells; made in house; host or cells: insect cells
Nature of the assay: AKT1 kinase assay (wildtype, TR-FRET, Lance). It is filed as biochemical. The note with it: 0.6 nM wildtype AKT1, 50 nM Ulight-CREBtide, either 50 μM ATP or 2 mM ATP (not specified which), 60 min at RT. On the procedure: AKT1 kinase assay: Inhibitory effects of compounds on wildtype AKT1 were undertaken in a 10-pt dose response kinase activity assay measuring phospho-peptide product formation based on TR-FRET signal as described in the following paragraph.
as §1, with “full-length wildtype” for “full-length”, “AKT1” for “AKT1 E17K”, “Ulight™—CREBtide” for “Ulight™-CREBtide”, “AKT1,” for “AKT1 E17K,”, “nM Ulight™-CREBtide” for “nM. Ulight™ CREBtide”

T1 sequence (P31749 whole entry E17K): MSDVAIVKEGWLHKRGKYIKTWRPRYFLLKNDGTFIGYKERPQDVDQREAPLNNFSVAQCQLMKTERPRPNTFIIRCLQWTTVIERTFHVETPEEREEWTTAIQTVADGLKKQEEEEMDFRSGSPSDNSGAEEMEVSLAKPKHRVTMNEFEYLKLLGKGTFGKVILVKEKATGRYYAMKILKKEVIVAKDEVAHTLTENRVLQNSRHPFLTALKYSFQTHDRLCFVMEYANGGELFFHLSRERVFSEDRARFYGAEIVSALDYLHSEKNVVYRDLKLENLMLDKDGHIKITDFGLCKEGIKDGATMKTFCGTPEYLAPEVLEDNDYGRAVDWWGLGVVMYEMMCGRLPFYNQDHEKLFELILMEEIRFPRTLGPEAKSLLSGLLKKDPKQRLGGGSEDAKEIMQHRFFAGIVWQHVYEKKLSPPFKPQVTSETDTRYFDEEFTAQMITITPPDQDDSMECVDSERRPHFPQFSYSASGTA
T2 sequence (P31749 whole entry): as the sequence (P31749 whole entry E17K) above, with K17E counted along it

In the case of `Nc1ncccc1-c1nc2ccc(-c3ccccc3)nc2n1-c1ccc(NC(=O)c2ccc(C(=O)O)cc2)nc1` [Compound 59, 4-((5-(2-(2-aminopyridin-3-yl)-5-phenyl-3H-imidazo[4,5-b]pyridin-3-yl)pyridin-2-yl)carbamoyl)benzoic acid], the IC50 – broadly, the midpoint of a concentration-inhibition curve – in assay [1] is below 50 nM; in assay [2], below 500 nM.
On the same counts, the results for `Nc1ncccc1-c1nc2ccc(-c3ccccc3)nc2n1-c1ccc(NC(=O)c2ccc(C(=O)O)nc2)nc1` [Compound 151] are below 50 nM and below 500 nM.
For `CC(c1ccc(C(=O)O)cc1)N1CCCC(c2ccc(-n3c(-c4cccnc4N)nc4ccc(-c5ccccc5)nc43)cc2)C1` (centres unmarked) [Compound 170, 4-(1-(3-(4-(2-(2-aminopyridin-3-yl)-5-phenyl-3H-imidazo[4,5-b]pyridin-3-yl)phenyl)piperidin-1-yl)ethyl)benzoic acid], in that order: above 500 nM and below 500 nM.
On the same counts, the results for `CC(c1ccc(C(=O)O)cc1)N1CC(c2ccc(-n3c(-c4cccnc4N)nc4ccc(-c5ccccc5)nc43)cn2)C1` (centres unmarked) [Compound 167, 4-(1-(3-(5-(2-(2-aminopyridin-3-yl)-5-phenyl-3H-imidazo[4,5-b]pyridin-3-yl)pyridin-2-yl)azetidin-1-yl)ethyl)benzoic acid] are above 500 nM and below 500 nM.
As to `Nc1ncccc1-c1nc2ccc(-c3ccccc3)nc2n1-c1ccc(C2CN(Cc3cc(O)c(C(=O)O)c(F)c3)C2)cc1` [Compound 185, 4-((3-(4-(2-(2-aminopyridin-3-yl)-5-phenyl-3H-imidazo[4,5-b]pyridin-3-yl)phenyl)azetidin-1-yl)methyl)-2-fluoro-6-hydroxybenzoic acid], the concentration for half-maximal inhibition (IC50) in assay [1] is below 50 nM; in assay [2], below 500 nM.
For `Nc1ncccc1-c1nc2ccc(-c3cccnc3)nc2n1-c1ccc(CNC(=O)c2ccc(CC(=O)O)cc2)cc1` [Compound 95, 2-(4-((4-(2-(2-aminopyridin-3-yl)-5-(pyridin-3-yl)-3H-imidazo[4,5-b]pyridin-3-yl)benzyl)carbamoyl)phenyl) acetic acid], in that order: 200 to 500 nM and below 500 nM.
`Nc1ncccc1-c1nc2ccc(-c3ccccc3)nc2n1-c1ccc(NC(=O)c2cccc(C(=O)O)c2)cc1` [Compound 54, 3-[[4-[2-(2-amino-3-pyridyl)-5-phenyl-imidazo[4,5-b]pyridin-3-yl]phenyl]carbamoyl]benzoic acid]: the figures for the IC50 in assay [1] and in assay [2] were below 50 nM and below 500 nM, respectively.
On to `Cc1cc(C(=O)O)c(F)cc1C(=O)Nc1ccc(-n2c(-c3cccnc3N)nc3ccc(-c4ccccc4)nc32)c(C)n1` [Compound 149], for which the 50% inhibitory concentration (IC50) was 50 to 200 nM in assay [1] and below 500 nM in assay [2].
For `C[C@@H](c1ccc(C(=O)O)cc1C(F)(F)F)N1CC(c2ccc(-n3c(-c4cccnc4N)nc4ccc(-c5ccccc5)nc43)cc2)C1` [Compound 164], in that order: above 500 nM and below 500 nM.
For `Cc1cc(C(=O)O)ccc1C(=O)NCc1ccc(-n2c(-c3cccnc3N)nc3ccc(C(F)(F)F)cc32)cc1` [Compound 105, 4-((4-(2-(2-aminopyridin-3-yl)-6-(trifluoromethyl)-1H-benzo[d]imidazol-1-yl)benzyl)carbamoyl)-3-methylbenzoic acid], in that order: above 500 nM and below 500 nM.
As to `CC(C)(C)c1ccc2nc(-c3cccnc3N)n(-c3ccc(NC(=O)c4ccc(C(=O)O)cc4)nc3)c2c1` [Compound 174, 4-((5-(2-(2-aminopyridin-3-yl)-6-(tert-butyl)-1H-benzo[d]imidazol-1-yl)pyridin-2-yl)carbamoyl)benzoic acid], the IC50 in assay [1] and in assay [2] was above 500 nM each time.
For `CC(=O)Nc1ccc(-c2cnc3c(c2)nc(-c2cccnc2N)n3-c2ccc(CNC(=O)c3cccc(CC(=O)O)c3)cc2)cc1` [Compound 84, 2-(3-((4-(6-(4-acetamidophenyl)-2-(2-aminopyridin-3-yl)-3H-imidazo[4,5-b]pyridin-3-yl)benzyl)carbamoyl)phenyl) acetic acid], the half-inhibitory concentration (IC50) in assay [1] is 50 to 200 nM; in assay [2], below 500 nM.
For `Nc1ncccc1-c1nc2cc(C(F)(F)F)cnc2n1-c1ccc(CNC(=O)c2ccc(C(=O)O)cc2)cc1` [Compound 98, 4-((4-(2-(2-aminopyridin-3-yl)-6-(trifluoromethyl)-3H-imidazo[4,5-b]pyridin-3-yl)benzyl)carbamoyl)benzoic acid], in that order: above 500 nM and below 500 nM.
In the case of `COc1ccc2nc(-c3cccnc3N)n(-c3ccc(CNC(=O)c4cccc(CC(=O)O)c4)cc3)c2c1` [Compound 104, 2-(3-((4-(2-(2-aminopyridin-3-yl)-6-methoxy-1H-benzo[d]imidazol-1-yl)benzyl)carbamoyl)phenyl) acetic acid], the IC50 in assay [1] and in assay [2] was above 500 nM each time.
Turning to `CC(C(=O)O)c1ccc(C(=O)NCc2ccc(-n3c(-c4cccnc4N)nc4ccc(-c5ccccc5)nc43)cc2)cc1` (centres unmarked) [Compound 35, 2-(4-((4-(2-(2-aminopyridin-3-yl)-5-phenyl-3H-imidazo[4,5-b]pyridin-3-yl)benzyl)carbamoyl)phenyl) propanoic acid], the results for the half-maximal inhibitory concentration (IC50) in assay [1] and in assay [2] were below 50 nM and below 500 nM, respectively.
For `C[C@H](c1ccc(C(=O)O)cc1C(F)(F)F)N1CC(c2ccc(-n3c(-c4cccnc4N)nc4ccc(-c5ccccc5)nc43)cc2)C1` [Compound 165], in that order: 50 to 200 nM and below 500 nM.
On the same counts, the results for `Nc1ncccc1-c1nc2ccc(-c3ccccc3)cc2n1-c1ccc(CNC(=O)c2cccc(CC(=O)O)c2)cc1` [Compound 51, 2-(3-((4-(2-(2-aminopyridin-3-yl)-6-phenyl-1H-benzo[d]imidazol-1-yl)benzyl)carbamoyl)phenyl)acetic acid] are 50 to 200 nM and below 500 nM.
`Nc1ncccc1-c1nc2ccc(-c3ccccc3)nc2n1-c1ccc(CNC(=O)c2cccc(CC(=O)O)c2)nc1` [Compound 48, 2-(3-(((5-(2-(2-aminopyridin-3-yl)-5-phenyl-3H-imidazo[4,5-b]pyridin-3-yl)pyridin-2-yl)methyl)carbamoyl)phenyl)acetic acid]: the IC50 in assay [1] and in assay [2] was above 500 nM throughout.
In the case of `Nc1ncccc1-c1nc2ccc(-c3ccccc3)nc2n1-c1ccc(CNC(=O)c2cc(C(=O)O)ccc2F)cc1` [Compound 23, 3-((4-(2-(2-aminopyridin-3-yl)-5-phenyl-3H-imidazo[4,5-b]pyridin-3-yl)benzyl)carbamoyl)-4-fluorobenzoic acid], the IC50 is below 50 nM in assay [1] and below 500 nM in assay [2].
On the same counts, the results for `Cc1nc(NC(=O)c2ccc(C(=O)O)cc2F)ccc1-n1c(-c2cccnc2N)nc2ccc(-c3ccccc3)nc21` [Compound 148] are 50 to 200 nM and below 500 nM.
On the same counts, the results for `Nc1ncccc1-c1nc2ccc(-c3ccccc3)nc2n1-c1ccc(C(=O)NCc2cccc(CC(=O)O)c2)cc1` [Compound 52, 2-(3-((4-(2-(2-aminopyridin-3-yl)-5-phenyl-3H-imidazo[4,5-b]pyridin-3-yl)benzamido)methyl)phenyl)acetic acid] are above 500 nM and above 500 nM.
For `CC(c1ccc(C(=O)O)cc1)N1CCC(c2ccc(-n3c(-c4cccnc4N)nc4ccc(-c5ccccc5)nc43)cc2)CC1` (centres unmarked) [Compound 169, 4-(1-(4-(4-(2-(2-aminopyridin-3-yl)-5-phenyl-3H-imidazo[4,5-b]pyridin-3-yl)phenyl)piperidin-1-yl)ethyl)benzoic acid], in that order: 200 to 500 nM and below 500 nM.
